# Assay results as given in PubChem BioAssay (NCI).
#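 All cell lines were grown in 96-well plates and treated with compound for 48 hours. GI50 is the concentration that inhibits growth by half. TGI: total growth inhibition.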
# Experiments:
# Assay in all cases: NCI-60 cell line screen, 48 h
# BT-549 breast = tested on: BT-549 breast
# UO-31 renal = tested on: UO-31 renal
# SR leukemia = tested on: SR leukemia
# HT29 colon = tested on: HT29 colon
# OVCAR-3 ovarian = tested on: OVCAR-3 ovarian
# SF-268 CNS = tested on: SF-268 CNS
# SF-539 CNS = tested on: SF-539 CNS
# SW-620 colon = tested on: SW-620 colon
# MALME-3M melanoma = tested on: MALME-3M melanoma
# IGROV1 ovarian = tested on: IGROV1 ovarian
Compound,TGI (BT-549 breast) [µM],TGI (UO-31 renal) [µM],TGI (SR leukemia) [µM],TGI (HT29 colon) [µM],TGI (OVCAR-3 ovarian) [µM],TGI (SF-268 CNS) [µM],TGI (SF-539 CNS) [µM],TGI (SW-620 colon) [µM],TGI (MALME-3M melanoma) [µM],TGI (IGROV1 ovarian) [µM],GI50 (SR leukemia) [µM],GI50 (IGROV1 ovarian) [µM],GI50 (UO-31 renal) [µM],GI50 (HT29 colon) [µM],GI50 (OVCAR-3 ovarian) [µM],GI50 (SF-268 CNS) [µM],GI50 (SF-539 CNS) [µM],GI50 (SW-620 colon) [µM],GI50 (MALME-3M melanoma) [µM]
COc1ccc(-c2cc(-c3ccc(O)cc3O)c(C#N)c(=O)[nH]2)cc1,55.9,69.6,53.4,34.6,48.6,73.5,34.7,50.3,70.4,,,,,,,,,,
Cn1ccc(C(=O)NCCN(CCNC(=O)c2ccn(C)c(=O)c2O)CCNC(=O)c2ccn(C)c(=O)c2O)c(O)c1=O,> 100,> 100,> 100,> 100,> 100,> 100,> 100,> 100,> 100,> 100,,,,,,,,,
Cc1[nH]c(=O)[nH]c(=O)c1/C=C/C(=O)NC(CO)CS(=O)Cc1ccccc1 (configuration not stated),,> 300,,> 300,> 300,> 300,> 300,> 300,> 300,> 300,,,,,,,,,
COc1cc(/C=N\c2nc(-c3ccc(NS(=O)(=O)c4ccc(Cl)c(OC)c4)cc3)cs2)ccc1O,83,> 100,> 100,> 100,> 100,> 100,> 100,> 100,> 100,> 100,,,,,,,,,
NNC(=O)CCSc1ccccc1,> 100,> 100,> 100,> 100,> 100,> 100,> 100,> 100,> 100,> 100,,,,,,,,,
CN(C)CCCSc1nc2c(c(=N)n1-c1ccccc1)c(=S)n(-c1ccccc1)c(=S)n2-c1ccccc1,3.38,,1.07,,3.12,3.33,6.95,3.65,3.6,3.14,,,,,,,,,
CCOC(=O)C(Cc1cn(C(C)=O)c2ccccc12)P(=O)(OCC)OCC (configuration not stated),,> 100,> 100,> 100,> 100,,,> 100,,> 100,,,,,,,,,
c1ccc(C(NC2=NCCO2)c2ccccc2)cc1,,> 10,> 10,> 10,> 10,> 10,> 10,> 10,> 10,> 10,,,,,,,,,
Cn1ncc2c(Nc3cccc(Cl)c3)nc(Nc3cccc(Cl)c3)nc21,59,35.4,,> 56.8,> 66.6,55.8,52,> 58.2,48,> 66.6,,,,,,,,,
COc1ccc(C(O)(c2ccccc2)c2nccc3ccccc23)cc1 (configuration not stated),> 100,> 100,> 100,> 100,6.32,> 100,,,7.27,> 100,,,,,,,,,
O=C(O)CCc1nc2ccccc2[nH]1,> 100,> 100,> 100,> 100,> 100,> 100,> 100,> 100,> 100,> 100,,,,,,,,,
C/C(=N\NC(=S)N(C)C)c1nc2ncccc2[nH]1,6.48,1.89,> 100,> 100,,> 100,5.11,> 100,6.68,70,,,,,,,,,
COc1cc2cc(C(=O)Nc3cc4n(n3)-c3ccccc3C4)[nH]c2c(OC)c1OC,3.57,6.8,11.5,25.5,11.8,15.1,17.8,19.1,6.43,9.79,,,,,,,,,
O=[N+]([O-])c1ccc(Oc2c(Cl)cc(S(=O)(=O)/N=C(\NO)Nc3ccc(Cl)cc3)cc2Cl)c(Cl)c1,29,26.5,32.6,30.5,24.7,29.6,36.7,80.3,28.3,,,,,,,,,,
O=c1/c(=C/c2ccc([N+](=O)[O-])o2)sc2n1[C@@H](c1ccc(Cl)cc1)C=C(c1cc(F)c(Cl)cc1Cl)N=2,28.7,32.5,,23.2,,33.4,69,> 100,33.9,31.7,,,,,,,,,
CCOC(=O)CCSc1nc2ccc(I)cc2c(=O)n1Cc1ccccc1,> 94.4,1.42,29.5,> 100,> 84.5,> 91.2,> 100,> 100,48.4,> 100,,,,,,,,,
OCCCNc1ncnc2[nH]ncc12,> 100,> 100,,> 100,> 100,> 100,> 100,> 100,> 100,> 100,,,,,,,,,
CC(Oc1ccccc1Cl)C(=O)NN1C(=O)CC(=O)NC1=S (configuration not stated),> 100,> 100,> 100,> 100,> 100,> 100,> 100,> 100,> 100,> 100,,,,,,,,,
COc1cc2c(cc1OCCCOS(C)(=O)=O)N=C[C@@H]1CCCN1C2=O,,> 100,> 100,> 100,> 100,> 100,> 100,> 100,> 100,> 100,62.9,,,,,,,,
O=C(Nc1ccc(-n2cc(-c3ccncc3)c(-c3ccc(O)c(Cl)c3)n2)cc1)Nc1ccc(Cl)c(C(F)(F)F)c1,,16.4,21.6,25.2,10.9,26.7,12.5,20,17.1,30.3,3.96,4.42,3.01,10.2,3.23,4.36,2.58,4.55,3.04
O=C(O)c1cc(=O)c2c(OCC(O)COc3cccc4oc(C(=O)O)cc(=O)c34)cccc2o1,> 100,> 100,> 100,> 100,> 100,> 100,> 100,> 100,> 100,> 94.9,,,,,,,,,
NC(=O)c1cccc(N=c2oc3ccc(Br)cc3cc2-c2nc3ccccc3[nH]2)c1,30.4,20.8,> 100,34.7,32.1,43.6,14.4,47.7,43,33.6,,,,,,,,,
CC(=O)O[C@@H]1C(=O)N(c2ccccc2)[C@@H]1c1cc2ccccc2c2ccccc12,,87,52.9,> 100,83.4,> 100,96.9,,88.9,61.9,,,,,,,,,
CC(C)CC(=O)NC(C(=O)NC(C(=O)NC(CC(C)C)C(O)CC(=O)NC(C)C(=O)NC(CC(C)C)C(O)CC(=O)O)C(C)C)C(C)C (configuration not stated),> 100,> 100,> 100,> 100,> 100,> 100,> 100,> 100,> 100,> 100,,,,,,,,,
Cc1c2c(OCC(O)CN3CCN(c4ccccc4)CC3)nn(C)c(=O)c2c(C)n1-c1ccccc1 (configuration not stated),47.6,43.2,,46.3,45.5,73.5,33.6,98.8,40.7,> 100,,,,,,,,,
Nc1ccc(Oc2ccc(C3(c4ccc(Oc5ccc(N)cc5)cc4)C4CC5CC(C4)CC3C5)cc2)cc1,> 49.2,21.4,20.3,24.7,9.78,> 95.3,> 66.2,> 66.5,> 64.2,> 44.5,,,,,,,,,
C#C/C=C\CCCCCCCCCCCCCC/C=C\CCCCC#CC(O)C#CCCCC/C=C\CCCCCC/C=C/C(O)C#C (configuration not stated),> 75,37.4,> 60.8,> 48.8,> 55.1,44.4,> 75,> 52.9,33.8,31,,,,,,,,,
CC(C)C(=O)CC(c1ccc(Cl)cc1)N1N=C(C(C)C)CC1c1ccc(Cl)cc1 (configuration not stated),,> 100,28.2,> 100,> 100,> 100,> 42.7,> 100,> 100,> 100,,,,,45.6,> 100,,,
C/C(=N\NC(=S)NCCCCNC(=S)N/N=C(\C)c1ccccn1)c1ccccc1,29.5,13.1,2.17,> 100,> 65.2,> 36.5,3.86,> 100,> 52.4,> 28.8,,,,,,,,,
C=CCN1C[C@H](C)N([C@@H](c2ccc(C(=O)N3CCCCC3)cc2)c2cccc(OC)c2)C[C@H]1C,> 100,> 100,35.4,> 100,> 100,> 100,67.7,,40.7,> 100,,,,,,,,,
